Experimental data as given in the kinase profiling compilation of Christmann-Franck et al. (2016).

What was measured:
Assay in all cases: KINOMEscan competition binding
Conditions in all cases: compound 10.0 µM
RPS6KA4 KD1 (human) = RPS6KA4 KD1 (human) (UniProt O75676)
STK38L (human) = STK38L (human) (UniProt Q9Y2H1)
RPS6KA5 KD1 (human) = RPS6KA5 KD1 (human) (UniProt O75582)
WEE2 (human) = WEE2 (human) (UniProt P0C1S8)
NEK7 (human) = NEK7 (human) (UniProt Q8TDX7)
CDK11B (human) = CDK11B (human) (UniProt P21127)
PAK4 (human) = PAK4 (human) (UniProt O96013)
EPHB4 (human) = EPHB4 (human) (UniProt P54760)
NEK5 (human) = NEK5 (human) (UniProt Q6P3R8)
HIPK1 (human) = HIPK1 (human) (UniProt Q86Z02)
Chain of HIPK1 (human) (Q86Z02 whole entry, looked up): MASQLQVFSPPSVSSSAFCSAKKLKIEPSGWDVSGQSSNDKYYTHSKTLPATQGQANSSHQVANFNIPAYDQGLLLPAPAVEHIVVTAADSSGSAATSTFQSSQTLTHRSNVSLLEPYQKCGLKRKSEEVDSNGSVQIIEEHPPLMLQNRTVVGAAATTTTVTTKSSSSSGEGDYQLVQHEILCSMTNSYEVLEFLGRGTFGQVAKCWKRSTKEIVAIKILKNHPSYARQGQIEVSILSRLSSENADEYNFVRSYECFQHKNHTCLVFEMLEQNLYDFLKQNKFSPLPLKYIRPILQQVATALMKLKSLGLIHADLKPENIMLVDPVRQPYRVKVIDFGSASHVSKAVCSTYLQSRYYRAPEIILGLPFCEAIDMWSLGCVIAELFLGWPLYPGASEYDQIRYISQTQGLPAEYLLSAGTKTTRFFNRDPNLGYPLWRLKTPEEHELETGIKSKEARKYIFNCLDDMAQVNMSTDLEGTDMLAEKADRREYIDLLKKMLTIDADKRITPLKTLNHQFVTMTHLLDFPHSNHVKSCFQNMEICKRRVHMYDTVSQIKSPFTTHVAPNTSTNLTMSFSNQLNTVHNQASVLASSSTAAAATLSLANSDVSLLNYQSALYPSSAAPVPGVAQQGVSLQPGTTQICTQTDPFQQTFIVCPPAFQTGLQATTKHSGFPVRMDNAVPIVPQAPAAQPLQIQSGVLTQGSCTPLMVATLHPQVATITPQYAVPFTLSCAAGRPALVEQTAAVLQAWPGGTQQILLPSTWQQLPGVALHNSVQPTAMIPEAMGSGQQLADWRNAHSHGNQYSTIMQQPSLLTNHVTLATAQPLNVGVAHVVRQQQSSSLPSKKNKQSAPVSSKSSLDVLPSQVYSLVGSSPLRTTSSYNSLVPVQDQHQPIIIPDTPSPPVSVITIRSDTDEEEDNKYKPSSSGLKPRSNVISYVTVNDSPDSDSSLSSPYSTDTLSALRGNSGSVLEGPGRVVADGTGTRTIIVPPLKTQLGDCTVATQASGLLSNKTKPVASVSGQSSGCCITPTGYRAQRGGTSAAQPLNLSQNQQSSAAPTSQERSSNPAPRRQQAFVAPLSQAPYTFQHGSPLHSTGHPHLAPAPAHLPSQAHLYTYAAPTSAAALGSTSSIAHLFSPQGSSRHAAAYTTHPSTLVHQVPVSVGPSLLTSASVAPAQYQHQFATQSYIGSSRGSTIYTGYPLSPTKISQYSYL

[1] = tested on: EGFR (human), P00533 [G719S]
EIF2AK2 (human) = EIF2AK2 (human) (UniProt P19525)
[2] = tested on: KIT (human), P10721 [D816V]
MAP2K3 (human) = MAP2K3 (human) (UniProt P46734)
[3] = tested on: ABL1 (human), P00519 [M351T]
MAPK13 (human) = MAPK13 (human) (UniProt O15264)
RIOK2 (human) = RIOK2 (human) (UniProt Q9BVS4)
PDGFRB (human) = PDGFRB (human) (UniProt P09619)
EPHB2 (human) = EPHB2 (human) (UniProt P29323)
PTK2 (human) = PTK2 (human) (UniProt Q05397)
MAPK11 (human) = MAPK11 (human) (UniProt Q15759)
CSNK2A1 (human) = CSNK2A1 (human) (UniProt P68400)
STK24 (human) = STK24 (human) (UniProt Q9Y6E0)
TNK1 (human) = TNK1 (human) (UniProt Q13470)
PHKG2 (human) = PHKG2 (human) (UniProt P15735)
MELK (human) = MELK (human) (UniProt Q14680)
Chain of MELK (human) (Q14680 whole entry, looked up): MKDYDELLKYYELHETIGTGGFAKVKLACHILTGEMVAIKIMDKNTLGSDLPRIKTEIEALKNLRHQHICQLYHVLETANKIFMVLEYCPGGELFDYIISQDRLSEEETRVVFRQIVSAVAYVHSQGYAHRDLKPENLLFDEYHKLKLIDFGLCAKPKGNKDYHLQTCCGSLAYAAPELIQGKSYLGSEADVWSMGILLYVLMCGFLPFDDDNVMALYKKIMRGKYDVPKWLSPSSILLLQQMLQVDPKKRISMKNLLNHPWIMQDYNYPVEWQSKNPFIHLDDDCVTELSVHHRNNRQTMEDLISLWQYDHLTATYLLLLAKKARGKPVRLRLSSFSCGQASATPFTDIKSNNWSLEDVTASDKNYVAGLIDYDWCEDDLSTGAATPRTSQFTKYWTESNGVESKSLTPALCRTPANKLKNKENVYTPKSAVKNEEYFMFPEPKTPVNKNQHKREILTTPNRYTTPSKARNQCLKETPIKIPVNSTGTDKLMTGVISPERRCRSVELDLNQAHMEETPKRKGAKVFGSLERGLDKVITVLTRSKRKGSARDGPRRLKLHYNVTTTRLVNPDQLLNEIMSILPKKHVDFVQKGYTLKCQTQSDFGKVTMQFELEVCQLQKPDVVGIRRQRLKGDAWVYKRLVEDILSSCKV

CDK9 (human) = CDK9 (human) (UniProt P50750)
CSNK1E (human) = CSNK1E (human) (UniProt P49674)
RET (human) = RET (human) (UniProt P07949)
TSSK1B (human) = TSSK1B (human) (UniProt Q9BXA7)
STK35 (human) = STK35 (human) (UniProt Q8TDR2)
CDK18 (human) = CDK18 (human) (UniProt Q07002)
[4] = tested on: KIT (human), P10721 [V559D]
CDK2 (human) = CDK2 (human) (UniProt P24941)
FGFR3 (human) = FGFR3 (human) (UniProt P22607)
[5] = tested on: EGFR (human), P00533 [A750P; 747-749 del]
LATS1 (human) = LATS1 (human) (UniProt O95835)
RPS6KA4 KD2 (human) = RPS6KA4 KD2 (human) (UniProt O75676)
MAP3K4 (human) = MAP3K4 (human) (UniProt Q9Y6R4)
AKT2 (human) = AKT2 (human) (UniProt P31751)
EPHA2 (human) = EPHA2 (human) (UniProt P29317)
CDC42BPA (human) = CDC42BPA (human) (UniProt Q5VT25)
Chain of CDC42BPA (human) (Q5VT25 whole entry, looked up): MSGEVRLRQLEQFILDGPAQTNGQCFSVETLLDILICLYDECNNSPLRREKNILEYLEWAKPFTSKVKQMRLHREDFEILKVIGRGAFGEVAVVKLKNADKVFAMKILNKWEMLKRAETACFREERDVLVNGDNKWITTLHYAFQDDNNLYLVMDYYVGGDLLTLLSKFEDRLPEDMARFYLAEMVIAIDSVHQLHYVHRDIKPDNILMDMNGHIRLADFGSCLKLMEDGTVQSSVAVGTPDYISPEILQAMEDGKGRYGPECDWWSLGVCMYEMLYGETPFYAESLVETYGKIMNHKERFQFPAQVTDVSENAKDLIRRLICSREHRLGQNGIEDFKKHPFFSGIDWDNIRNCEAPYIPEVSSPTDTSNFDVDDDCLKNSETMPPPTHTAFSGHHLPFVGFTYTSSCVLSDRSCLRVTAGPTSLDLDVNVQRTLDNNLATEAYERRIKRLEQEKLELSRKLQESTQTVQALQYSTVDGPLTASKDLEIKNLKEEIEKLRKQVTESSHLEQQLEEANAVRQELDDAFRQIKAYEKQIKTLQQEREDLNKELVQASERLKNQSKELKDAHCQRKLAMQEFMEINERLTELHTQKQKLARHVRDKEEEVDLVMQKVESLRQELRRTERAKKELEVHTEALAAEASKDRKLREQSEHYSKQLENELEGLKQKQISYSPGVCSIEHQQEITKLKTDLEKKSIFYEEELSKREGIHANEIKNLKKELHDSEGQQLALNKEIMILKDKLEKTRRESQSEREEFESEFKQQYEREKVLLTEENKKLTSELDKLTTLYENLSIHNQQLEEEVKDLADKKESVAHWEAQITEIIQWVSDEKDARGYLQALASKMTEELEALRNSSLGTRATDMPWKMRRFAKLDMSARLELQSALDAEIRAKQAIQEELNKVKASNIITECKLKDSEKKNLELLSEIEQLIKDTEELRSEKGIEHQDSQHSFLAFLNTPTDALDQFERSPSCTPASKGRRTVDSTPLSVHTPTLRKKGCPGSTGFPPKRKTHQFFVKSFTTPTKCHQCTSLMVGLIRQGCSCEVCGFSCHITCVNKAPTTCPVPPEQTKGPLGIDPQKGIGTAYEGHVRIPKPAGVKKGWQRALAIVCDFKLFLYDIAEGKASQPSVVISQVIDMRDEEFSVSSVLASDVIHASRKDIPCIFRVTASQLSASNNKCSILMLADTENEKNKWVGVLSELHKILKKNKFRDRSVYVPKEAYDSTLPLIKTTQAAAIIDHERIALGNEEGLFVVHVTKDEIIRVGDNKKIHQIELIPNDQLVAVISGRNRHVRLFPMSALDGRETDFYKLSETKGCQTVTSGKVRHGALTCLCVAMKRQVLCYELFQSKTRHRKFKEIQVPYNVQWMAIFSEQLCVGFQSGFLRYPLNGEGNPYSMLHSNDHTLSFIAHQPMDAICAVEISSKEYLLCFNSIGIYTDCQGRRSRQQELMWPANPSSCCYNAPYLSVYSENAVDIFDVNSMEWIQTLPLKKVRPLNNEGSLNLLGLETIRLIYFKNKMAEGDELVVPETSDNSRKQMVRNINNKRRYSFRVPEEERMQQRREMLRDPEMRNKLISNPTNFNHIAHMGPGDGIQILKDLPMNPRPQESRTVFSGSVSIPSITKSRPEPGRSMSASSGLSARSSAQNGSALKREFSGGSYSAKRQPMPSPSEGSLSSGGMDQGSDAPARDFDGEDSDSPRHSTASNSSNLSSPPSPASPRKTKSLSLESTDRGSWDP

Chain of RPS6KA5 KD1 (human) (O75582 whole entry, looked up): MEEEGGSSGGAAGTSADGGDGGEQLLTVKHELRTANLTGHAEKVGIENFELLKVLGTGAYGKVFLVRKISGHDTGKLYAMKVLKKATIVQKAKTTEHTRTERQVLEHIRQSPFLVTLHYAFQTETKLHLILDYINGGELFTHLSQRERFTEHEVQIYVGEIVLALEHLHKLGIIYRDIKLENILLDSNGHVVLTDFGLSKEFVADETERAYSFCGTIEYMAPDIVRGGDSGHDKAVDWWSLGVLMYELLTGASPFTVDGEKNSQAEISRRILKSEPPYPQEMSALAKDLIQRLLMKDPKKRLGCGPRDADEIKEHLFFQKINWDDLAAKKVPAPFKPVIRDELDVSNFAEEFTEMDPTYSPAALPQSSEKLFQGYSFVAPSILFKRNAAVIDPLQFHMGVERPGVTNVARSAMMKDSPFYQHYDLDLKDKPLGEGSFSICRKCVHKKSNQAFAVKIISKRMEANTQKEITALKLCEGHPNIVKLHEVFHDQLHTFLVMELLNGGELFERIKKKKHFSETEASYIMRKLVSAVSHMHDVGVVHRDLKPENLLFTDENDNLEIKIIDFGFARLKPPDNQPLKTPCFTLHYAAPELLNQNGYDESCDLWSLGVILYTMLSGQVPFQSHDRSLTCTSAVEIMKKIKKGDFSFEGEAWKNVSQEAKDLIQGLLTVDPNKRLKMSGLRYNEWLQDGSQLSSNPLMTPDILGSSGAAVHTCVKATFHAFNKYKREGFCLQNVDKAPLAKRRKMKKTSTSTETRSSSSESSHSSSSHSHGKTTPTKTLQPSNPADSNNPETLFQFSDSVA
Chain of STK38L (human) (Q9Y2H1 whole entry, looked up): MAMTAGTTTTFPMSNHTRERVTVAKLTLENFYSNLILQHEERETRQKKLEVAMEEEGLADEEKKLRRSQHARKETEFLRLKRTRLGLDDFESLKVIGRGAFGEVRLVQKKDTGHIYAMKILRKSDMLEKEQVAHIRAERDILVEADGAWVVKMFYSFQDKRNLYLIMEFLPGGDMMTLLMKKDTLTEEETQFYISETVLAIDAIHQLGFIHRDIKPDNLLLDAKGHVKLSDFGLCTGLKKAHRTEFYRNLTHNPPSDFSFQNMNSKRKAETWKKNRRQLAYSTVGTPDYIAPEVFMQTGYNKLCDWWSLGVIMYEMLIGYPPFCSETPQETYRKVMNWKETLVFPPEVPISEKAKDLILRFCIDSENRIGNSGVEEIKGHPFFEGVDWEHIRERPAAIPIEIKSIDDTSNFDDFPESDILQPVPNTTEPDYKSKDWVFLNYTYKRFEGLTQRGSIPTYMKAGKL

Q: With CCOc1cc(N2CCC(N3CCCCC3)CC2)ccc1Nc1nc(Nc2ccccc2S(=O)(=O)C(C)C)c2cn[nH]c2n1 as the compound, how does the kinase still bound, per cent of control (RPS6KA4 KD1 (human)) read?
A: The kinase still bound, per cent of control was 100%.

Q: And the kinase still bound, per cent of control (STK38L (human))?
A: The kinase still bound, per cent of control was 100%.

Q: What about the kinase still bound, per cent of control (RPS6KA5 KD1 (human)) of the same compound?
A: The kinase still bound, per cent of control was 100%.

Q: What about the kinase still bound, per cent of control (WEE2 (human)) of the same compound?
A: The kinase still bound, per cent of control was 100%.

Q: And the kinase still bound, per cent of control (NEK7 (human))?
A: Its kinase still bound, per cent of control is 100%.

Q: And the kinase still bound, per cent of control (CDK11B (human))?
A: Its kinase still bound, per cent of control is 100%.

Q: What about the kinase still bound, per cent of control (PAK4 (human)) of the same compound?
A: The kinase still bound, per cent of control was 85%.

Q: And the kinase still bound, per cent of control (EPHB4 (human))?
A: The kinase still bound, per cent of control was 99%.

Q: What about the kinase still bound, per cent of control (NEK5 (human)) of the same compound?
A: Its kinase still bound, per cent of control is 100%.

Q: What about the kinase still bound, per cent of control (HIPK1 (human)) of the same compound?
A: The kinase still bound, per cent of control was 82%.

Q: And the kinase still bound, per cent of control [1]?
A: Its kinase still bound, per cent of control is 100%.

Q: What about the kinase still bound, per cent of control (EIF2AK2 (human)) of the same compound?
A: Its kinase still bound, per cent of control is 100%.

Q: And the kinase still bound, per cent of control [2]?
A: The kinase still bound, per cent of control was 74%.

Q: And the kinase still bound, per cent of control (MAP2K3 (human))?
A: The kinase still bound, per cent of control was 7%.

Q: What about the kinase still bound, per cent of control [3] of the same compound?
A: Its kinase still bound, per cent of control is 53%.

Q: And the kinase still bound, per cent of control (MAPK13 (human))?
A: The kinase still bound, per cent of control was 100%.

Q: And the kinase still bound, per cent of control (RIOK2 (human))?
A: The kinase still bound, per cent of control was 76%.

Q: And the kinase still bound, per cent of control (PDGFRB (human))?
A: Its kinase still bound, per cent of control is 69%.

Q: What about the kinase still bound, per cent of control (EPHB2 (human)) of the same compound?
A: The kinase still bound, per cent of control was 100%.

Q: And the kinase still bound, per cent of control (PTK2 (human))?
A: Its kinase still bound, per cent of control is 0.2%.

Q: What about the kinase still bound, per cent of control (MAPK11 (human)) of the same compound?
A: The kinase still bound, per cent of control was 100%.

Q: What about the kinase still bound, per cent of control (CSNK2A1 (human)) of the same compound?
A: Its kinase still bound, per cent of control is 100%.

Q: What about the kinase still bound, per cent of control (STK24 (human)) of the same compound?
A: The kinase still bound, per cent of control was 82%.

Q: And the kinase still bound, per cent of control (TNK1 (human))?
A: Its kinase still bound, per cent of control is 2.4%.

Q: And the kinase still bound, per cent of control (PHKG2 (human))?
A: Its kinase still bound, per cent of control is 21%.

Q: What about the kinase still bound, per cent of control (MELK (human)) of the same compound?
A: The kinase still bound, per cent of control was 92%.

Q: What about the kinase still bound, per cent of control (CDK9 (human)) of the same compound?
A: The kinase still bound, per cent of control was 100%.

Q: What about the kinase still bound, per cent of control (CSNK1E (human)) of the same compound?
A: Its kinase still bound, per cent of control is 74%.

Q: And the kinase still bound, per cent of control (RET (human))?
A: Its kinase still bound, per cent of control is 100%.

Q: What about the kinase still bound, per cent of control (TSSK1B (human)) of the same compound?
A: Its kinase still bound, per cent of control is 92%.

Q: And the kinase still bound, per cent of control (STK35 (human))?
A: The kinase still bound, per cent of control was 100%.

Q: What about the kinase still bound, per cent of control (CDK18 (human)) of the same compound?
A: The kinase still bound, per cent of control was 100%.

Q: What about the kinase still bound, per cent of control [4] of the same compound?
A: Its kinase still bound, per cent of control is 86%.

Q: What about the kinase still bound, per cent of control (CDK2 (human)) of the same compound?
A: Its kinase still bound, per cent of control is 100%.

Q: And the kinase still bound, per cent of control (FGFR3 (human))?
A: The kinase still bound, per cent of control was 94%.

Q: What about the kinase still bound, per cent of control [5] of the same compound?
A: Its kinase still bound, per cent of control is 10%.

Q: And the kinase still bound, per cent of control (LATS1 (human))?
A: The kinase still bound, per cent of control was 100%.

Q: And the kinase still bound, per cent of control (RPS6KA4 KD2 (human))?
A: The kinase still bound, per cent of control was 97%.

Q: What about the kinase still bound, per cent of control (MAP3K4 (human)) of the same compound?
A: The kinase still bound, per cent of control was 100%.

Q: What about the kinase still bound, per cent of control (AKT2 (human)) of the same compound?
A: Its kinase still bound, per cent of control is 100%.

Q: And the kinase still bound, per cent of control (EPHA2 (human))?
A: Its kinase still bound, per cent of control is 100%.

Q: What about the kinase still bound, per cent of control (CDC42BPA (human)) of the same compound?
A: The kinase still bound, per cent of control was 100%.
